In patent US11291205B2, “Microbiocidal picolinamide derivatives” (Syngenta Participations AG, priority 2017, dated 2022):

Key:
[1] = test system: Mycosphaerella graminicola (Septoria tritici); assay: Mycosphaerella graminicola (Septoria tritici) / liquid culture (Septoria blotch); type: cell-based; conditions: Zymoseptoria tritici, 96 h, 200 ppm in the formulation, inhibition of growth determined photometrically 4 to 5 days after application, compared to untreated control, read-out: disease control
Method: (§1) Mycosphaerella graminicola (Septoria tritici)/Liquid Culture (Septoria Blotch) Conidia of the fungus from cryogenic storage are directly mixed into nutrient broth (PDB potato dextrose broth). After placing a (DMSO) solution of test compound into a microtiter plate (96-well format), the nutrient broth containing the fungal spores is added. The test plates are incubated at 24° C. and the inhibition of growth is determined photometrically 4 to 5 days after application.

[2] = test system: Monographella nivalis (Microdochium nivale); assay: Monographella nivalis (Microdochium nivale) / liquid culture (foot rot cereals); type: cell-based; conditions: 96 h, 200 ppm in the formulation, inhibition of growth determined photometrically 4-5 days after application, compared to untreated control, read-out: disease control
Method: as §1, with “Monographella nivalis (Microdochium nivale)/Liquid” for “Mycosphaerella graminicola (Septoria tritici)/Liquid”, “(Foot Rot Cereals)” for “(Septoria Blotch)”, “4-5” for “4 to 5”

[3] = test system: Phaeosphaeria nodorum (Septoria nodorum); assay: Phaeosphaeria nodorum (Septoria nodorum) / wheat / leaf disc preventative (glume blotch); type: in vivo; conditions: 200 ppm in the formulation; wheat leaf segments cv. Kanzler; compared to untreated control; 5-7 days after application
Method: Phaeosphaeria nodorum (Septoria nodorum)/Wheat/Leaf Disc Preventative (Glume Blotch) Wheat leaf segments cv. Kanzler are placed on agar in a multiwell plate (24-well format) and sprayed with the formulated test compound diluted in water. The leaf disks are inoculated with a spore suspension of the fungus 2 days after application. The inoculated test leaf disks are incubated at 20° C. and 75% rh under a light regime of 12 h light/12 h darkness in a climate cabinet and the activity of a compound is assessed as percent disease control compared to untreated when an appropriate level of disease damage appears in untreated check leaf disks (5-7 days after application).

[4] = test system: Glomerella lagenarium (Colletotrichum lagenarium); assay: Glomerella lagenarium (Colletotrichum lagenarium) / liquid culture (anthracnose); type: cell-based; conditions: Colletotrichum orbiculare, 72 h, 200 ppm in the formulation, inhibition of growth measured photometrically 3 to 4 days after application, compared to untreated control, read-out: disease control
Method: as §1, with “Glomerella lagenarium (Colletotrichum lagenarium)/Liquid” for “Mycosphaerella graminicola (Septoria tritici)/Liquid”, “(Anthracnose)” for “(Septoria Blotch)”, “measured” for “determined”, “photometrically 3 to” for “photometrically”, “4” for “4 to 5”

[5] = test system: Mycosphaerella arachidis (Cercospora arachidicola); assay: Mycosphaerella arachidis (Cercospora arachidicola) / liquid culture (early leaf spot); type: cell-based; conditions: 96 h, 200 ppm in the formulation, inhibition of growth determined photometrically 4-5 days after application, compared to untreated control, read-out: disease control
Method: as §1, with “arachidis (Cercospora arachidicola)/Liquid” for “graminicola (Septoria tritici)/Liquid”, “(Early Leaf Spot)” for “(Septoria Blotch)”, “4-5” for “4 to 5”

`COc1ccnc(C(=O)N[C@@H](C)C(=O)OC2CCC2(c2ccccc2C)c2ccccc2C)c1O` (stereo partly drawn) [I.o.02, [2,2-bis(o-tolyl)cyclobutyl] (2S)-2-[(3-hydroxy-4-methoxy-pyridine-2-carbonyl)amino]propanoate] was tested, and the inhibition of growth at 200 ppm [1] was no less than 80%, the inhibition of growth at 200 ppm [2] was no less than 80% and the disease control [3] was “at least 80%”. For the same compound, the inhibition of growth at 200 ppm [4] was no less than 80% and the inhibition of growth at 200 ppm [5] was no less than 80%.
